Numbers after ± are expanded uncertainties.
Assay: activity coefficient (dimensionless); of the first substance listed, at infinite dilution; xn = mol fraction of the nth substance listed
Conditions: 101.33 kPa, Liquid, Chromatography, x1 = 0

| Structure (SMILES) | activity coefficient (303.25 K) | activity coefficient (313.25 K) | activity coefficient (323.25 K) | activity coefficient (333.25 K) | activity coefficient (343.25 K) | activity coefficient (308.95 K) | activity coefficient (318.25 K) | activity coefficient (323.15 K) |
| --- | --- | --- | --- | --- | --- | --- | --- | --- |
| CC(C)OC(C)C [diisopropyl ether] + O | 737 ± 44 | 965 ± 58 | 1140 ± 69 | 1310 ± 79 | – | – | – | – |
| CCC(C)=O [butanone] + O | 29.5 ± 1.8 | 33.8 ± 2 | 35.9 ± 2.1 | 38.9 ± 2.3 | – | – | – | – |
| COC(C)(C)C [2-methoxy-2-methylpropane] + O | 153 ± 9 | 195 ± 12 | 235 ± 14 | 278 ± 17 | – | – | – | – |
| CC(C)=O [acetone] + O | 8.02 ± 0.48 | 9.2 ± 0.6 | 9.81 ± 0.58 | 10.3 ± 0.6 | – | – | – | – |
| Cc1ccccc1 [toluene] + O | – | 8090 ± 490 | – | – | – | 8570 ± 520 | 7720 ± 470 | 7110 ± 430 |
| c1ccccc1 [benzene] + O | – | 2370 ± 140 | – | – | – | 2470 ± 150 | 2250 ± 140 | 2140 ± 130 |
| CCOCC [diethyl ether] + O | 90.1 ± 5.4 | 113 ± 7 | 135 ± 8 | 158 ± 10 | – | – | – | – |

Second part, led by results:

| activity coefficient (303.25 K) | activity coefficient (313.25 K) | activity coefficient (323.25 K) | activity coefficient (333.25 K) | activity coefficient (343.25 K) | Structure (SMILES) | activity coefficient (308.95 K) | activity coefficient (318.25 K) | activity coefficient (323.15 K) |
| --- | --- | --- | --- | --- | --- | --- | --- | --- |
| 297 ± 18 | 325 ± 20 | 341 ± 21 | 351 ± 21 | 348 ± 21 | CCCOC(C)=O [propyl ethanoate] + O | – | – | – |
| 643 ± 39 | 796 ± 48 | 942 ± 57 | 1080 ± 65 | – | CCC(C)(C)OC [2-methoxy-2-methylbutane] + O | – | – | – |
| 53.8 ± 3.2 | 55.7 ± 3.3 | 57.1 ± 3.4 | 57.7 ± 3.5 | – | CCOC=O [ethyl methanoate] + O | – | – | – |
| 5.03 ± 0.3 | 5.33 ± 0.32 | 5.54 ± 0.33 | 5.76 ± 0.34 | 5.96 ± 0.35 | CCO [ethanol] + O | – | – | – |
| 76.5 ± 4.6 | 85 ± 5 | 90.1 ± 5.4 | 94.7 ± 5.7 | 96.2 ± 5.8 | CCOC(C)=O [ethyl acetate] + O | – | – | – |
| 2520 ± 150 | 2880 ± 180 | 3230 ± 200 | 3230 ± 200 | – | CCCOCCC [dipropyl ether] + O | – | – | – |
| 26.2 ± 1.6 | 28.4 ± 1.7 | 29.8 ± 1.8 | 31.2 ± 1.9 | 31.6 ± 1.9 | COC(C)=O [methyl ethanoate] + O | – | – | – |
| 105 ± 6 | 120 ± 7 | 128 ± 8 | 135 ± 8 | – | CCCC(C)=O [pentan-2-one] + O | – | – | – |
| 18.7 ± 1.1 | 19.1 ± 1.1 | 19.5 ± 1.2 | 19.8 ± 1.2 | – | COC=O [methyl methanoate] + O | – | – | – |

— the NIST ThermoML archive (doi:10.1021/je049875+)
